Experimental data as given in patent US6495152B2, “Sulfur containing polyhydroxyalkanoate compositions and method of production” (Tepha, Inc., priority 2000, dated 2002).

What was measured:
[1] = tested on: P. putida; assay: Growth on MSM agar plates containing ATAs as sole carbon sources; format: cell-based, Pseudomonas putida KT2440; set-up: key to Growth on MSM agar plates: +: growth; ++: good growth; −: no growth; *: thiol odor detected; details: sole carbon source; for Growth on MSM agar plates: P. putida
Excerpt: (§1) Bacterial strains and culture conditions. The PHA-negative mutant R. eutropha PHB^−4 (DSM 541) and a recombinant strain of R. eutropha PHB^−4 harbouring plasmid pBBR1::phaC1 expressing the PHA synthase 1 of Pseudomonas mendocina, as well as Pseudomonas putida KT2440 (Worsey & Williams, “Metabolism of toluene and xylenes by Pseudomonas putida (arvilla) mt-2: evidence for a new function of the TOL plasmid” in J Bacteriol 124:7-13 (1975)), P. aeruginosa PAO1 (ATCC 15692), P. oleovorans (ATCC 29347), and P. mendocina (DSM 50017) were used. Cultivations were performed in nutrient broth (NB) medium or mineral salts medium (MSM) according to Schlegel (1961), supra, to which different alkylthioalkanoic acids were added as carbon sources from filter-sterilized 10% (w/v) stock solutions at the concentrations indicated in the text. Fed batch cultivations were carried out under aerobic conditions at 30° C. in 2 l Erlenmeyer flasks containing 500 ml of medium which were agitated at 130 r.p.m. In order to promote PHA accumulation, the ammonia concentration was reduced to 0.05% (w/v) in MSM.
(§2) Growth and PHA accumulation of bacteria on alkylthioalkanoic acids. To evaluate the capabilities of various pseudomonades to use alkylthioalkanoic acids (ATAs) as carbon and energy sources for the synthesis of sulfur containing PHAs, growth experiments were carried out employing MSM agar plates which contained propylthioundecanoic acid (PTUD), propylthiooctanoic acid (PTO), octylthiohexanoic acid (OTHx), butylthiovaleric acid (BTV), or propylthiopropionic acid (PTP) as carbon sources.

[2] = tested on: P. mendocina; assay: as above; format: cell-based, Pseudomonas mendocina; set-up: key: +: growth; ++: good growth; −: no growth; *: thiol odor detected; details: sole carbon source
Excerpt: as §1, §2

[3] = tested on: R. eutropha PHB-4 harboring pBBR1::phaC1; assay: Growth in MSM containing PTO as the sole carbon source; format: cell-based
Excerpt: as §1
Since growth of R. eutropha PHB-4 harboring pBBR1::phaC1 in MSM containing PTO as the sole carbon source was very poor, cultivations were carried out in complex medium (NB) or in MSM containing sodium gluconate as second utilizable carbon source in addition to PTO. […]

[4] = tested on: Pseudomonas strains; assay: Growth experiments of pseudomonades on alkylthioalkanoic acids; format: cell-based; details: for Use as sole carbon source for growth: all Pseudomonas strains investigated; for Concentration above which cell growth was impaired: pseudomonades
Excerpt: as §1, §2

[5] = tested on: P. aeruginosa; assay: Growth on MSM agar plates containing ATAs as sole carbon sources; format: cell-based, Pseudomonas aeruginosa PAO1; set-up: key: +: growth; ++: good growth; −: no growth; *: thiol odor detected; details: sole carbon source
Excerpt: as §1, §2

[6] = tested on: P. oleovorans; assay: as above; format: cell-based, Pseudomonas oleovorans; set-up: key: +: growth; ++: good growth; −: no growth; *: thiol odor detected; details: sole carbon source
Excerpt: as §1, §2

[7] = tested on: R. eutropha; assay: Growth experiments in mineral salts medium with sulfur-containing carbon sources; format: cell-based, R. eutropha H16; details: for Use as sole carbon source for growth: R. eutropha strain H16
Protocol: (§3) Bacterial strains and culture conditions. R. eutropha H16 (DSM 428) and R. eutropha PHB^−4 (DSM 541) were cultivated in nutrient broth (NB) growth medium or in mineral salts medium (MSM) (Schlegel et al., (1961) Arch. Mikrobiol. 38, 209-222) at 30° C. in Erlenmeyer flasks under aerobic conditions on a rotary shaker with 130 strokes/min. In order to promote PHA accumulation, the ammonia concentration was reduced to 0.05% (w/v). Carbon sources were added from filter-sterilized 20% (w/v) stock solutions at the concentrations indicated in the text.
as §3, with “PHB-4” for “PHB^−4”, “(Schlegel, 1961, supra)” for “(Schlegel et al., (1961) Arch. Mikrobiol. 38, 209-222)”, “filter-sterilized” for “filter-sterilized 20% (w/v)”

propylthiooctanoic acid [PTO]
Growth on MSM agar plates ([1]; 0.4% (w/v)): + | Growth on MSM agar plates ([2]; 0.4% (w/v)): ++ | Growth with the substance as the sole carbon source [3]: very poor | Use as sole carbon source for growth [4]: able to use | Concentration above which cell growth was impaired [4]: higher than 0.8 % (w/v) | Growth on MSM agar plates ([5]; 0.4% (w/v)): + | Growth on MSM agar plates ([6]; 0.4% (w/v)): +

CCCCSCCCCC(=O)O [BTV]
Growth on MSM agar plates ([1]; 0.3% (w/v)): +* | Growth on MSM agar plates ([2]; 0.3% (w/v)): +* | Use as sole carbon source for growth [4]: able to use | Concentration above which cell growth was impaired [4]: > 0.4 % (w/v) | Growth on MSM agar plates ([5]; 0.3% (w/v)): +* | Growth on MSM agar plates ([6]; 0.3% (w/v)): +*

CC(S)CC(=O)O (stereo not shown) [3-mercaptobutyric acid]
Use as sole carbon source for growth [7]: not able to use

O=C(O)CCSCCC(=O)O [TDP, 3,3′-thiodipropionic acid]
Use as sole carbon source for growth [7]: not able to use | Concentration up to which no toxic effects on growth were exerted ([7]; mineral salts medium plus readily utilized carbon source such as gluconic acid): ≤ 1.5 % (w/v)

octylthiohexanoic acid [OTHx]
Growth on MSM agar plates ([1]; 0.6% (w/v)): ++ | Growth on MSM agar plates ([2]; 0.6% (w/v)): ++ | Use as sole carbon source for growth [4]: able to use | Growth on MSM agar plates ([5]; 0.6% (w/v)): ++ | Growth on MSM agar plates ([6]; 0.6% (w/v)): ++

O=C(O)CCS [3-mercaptopropionic acid]
Use as sole carbon source for growth [7]: not able to use | Concentration in the medium above which growth was impaired ([7]; mineral salts medium plus readily utilized carbon source such as gluconic acid, R. eutropha and other bacteria): higher than 0.1 % (w/v)

propylthiopropionic acid [PTP]
Growth on MSM agar plates ([1]; 0.2% (w/v)): − | Growth on MSM agar plates ([2]; 0.2% (w/v)): − | Use as sole carbon source for growth [4]: not used by any bacterium for growth | Growth on MSM agar plates ([5]; 0.2% (w/v)): − | Growth on MSM agar plates ([6]; 0.2% (w/v)): −

propylthioundecanoic acid [PTUD]
Growth in comparison to other pseudomonades ([1]; P. putida KT2440): significantly lower | Growth on MSM agar plates ([1]; 0.4% (w/v)): +* | Growth on MSM agar plates ([2]; 0.4% (w/v)): ++* | Use as sole carbon source for growth [4]: able to use | Growth on MSM agar plates ([5]; 0.4% (w/v)): ++* | Growth on MSM agar plates ([6]; 0.4% (w/v)): ++*
